This passage reports IC50 results from patent US20220274979A1 (Bayer Pharma Aktiengesellschaft, priority 2018, published 2022).

pIC50: −log10 of the molar value.

The assay deals with T1, Epidermal Growth Factor Receptor (EGFR) (Homo sapiens, UniProt P00533).
T1 construct: purchased Sigma-Aldrich E3641
T1 sequence (P00533 25-1210): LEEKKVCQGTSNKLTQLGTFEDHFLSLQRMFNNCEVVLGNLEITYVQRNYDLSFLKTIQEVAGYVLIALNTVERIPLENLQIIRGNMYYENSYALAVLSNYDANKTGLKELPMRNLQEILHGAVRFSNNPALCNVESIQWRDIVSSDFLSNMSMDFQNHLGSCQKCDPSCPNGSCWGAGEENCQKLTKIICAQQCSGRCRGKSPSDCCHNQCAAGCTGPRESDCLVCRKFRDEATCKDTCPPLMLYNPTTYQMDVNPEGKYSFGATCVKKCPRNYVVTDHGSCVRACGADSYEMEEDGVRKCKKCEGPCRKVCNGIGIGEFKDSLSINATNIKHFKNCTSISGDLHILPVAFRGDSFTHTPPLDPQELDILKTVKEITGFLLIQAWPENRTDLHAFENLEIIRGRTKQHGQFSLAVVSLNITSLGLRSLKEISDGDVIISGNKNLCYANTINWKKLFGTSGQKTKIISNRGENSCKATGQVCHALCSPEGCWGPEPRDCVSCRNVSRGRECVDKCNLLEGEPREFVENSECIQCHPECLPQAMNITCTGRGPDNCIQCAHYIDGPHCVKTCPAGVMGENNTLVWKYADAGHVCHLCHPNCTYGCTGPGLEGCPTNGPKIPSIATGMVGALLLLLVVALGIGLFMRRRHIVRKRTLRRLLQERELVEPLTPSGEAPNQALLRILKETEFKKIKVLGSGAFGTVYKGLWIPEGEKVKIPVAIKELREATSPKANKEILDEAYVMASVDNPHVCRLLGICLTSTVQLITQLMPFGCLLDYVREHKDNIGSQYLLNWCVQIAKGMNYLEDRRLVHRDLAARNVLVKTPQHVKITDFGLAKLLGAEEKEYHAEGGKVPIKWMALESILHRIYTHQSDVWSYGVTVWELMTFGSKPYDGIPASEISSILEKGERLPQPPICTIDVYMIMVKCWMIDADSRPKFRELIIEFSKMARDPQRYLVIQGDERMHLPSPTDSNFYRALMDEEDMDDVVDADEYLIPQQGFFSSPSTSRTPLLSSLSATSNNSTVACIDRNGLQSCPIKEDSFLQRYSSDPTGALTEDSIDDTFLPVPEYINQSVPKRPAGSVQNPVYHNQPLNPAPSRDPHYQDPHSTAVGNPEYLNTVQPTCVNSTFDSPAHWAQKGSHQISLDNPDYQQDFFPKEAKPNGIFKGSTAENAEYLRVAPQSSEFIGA
Nature of the assay: EGFR kinase assay (TR-FRET). It counts as biochemical. The conditions noted are these: 10 μM ATP; read-out: EGFR kinase inhibition IC50. The source says: EGFR inhibitory activity of compounds of the present invention was quantified employing the TR-FRET based EGFR assay as described in the following paragraphs.
Epidermal Growth Factor Receptor (EGFR) affinity purified from human carcinoma A431 cells (Sigma-Aldrich, # E3641) was used as kinase. As substrate for the kinase reaction the biotinylated peptide biotin-Ahx-[…] (SEQ ID NO: 8, C-terminus in amid form) was used which can be purchased e.g. form the company Biosyntan GmbH (Berlin-Buch, Germany).
For the assay 50 nL of a 100 fold concentrated solution of the test compound in DMSO was pipetted into a black low volume 384 well microtiter plate (Greiner Bio-One, Frickenhausen, Germany), 2 μL of a solution of EGFR in aqueous assay buffer [50 mM Hepes/HCl pH 7.0, 1 mM MgCl2, 5 mM MnCl2, 0.5 mM activated sodium ortho-vanadate, 0.005% (v/v) Tween-20]were added and the mixture was incubated for […] at 22° C. to allow pre-binding of the test compounds to the enzyme before the start of the kinase reaction. Then the kinase reaction was started by the addition of 3 μL of a solution of adenosine-tri-phosphate (ATP, 16.7 μM=>final conc. in the 5 μL assay volume is 10 μM) and substrate (1.67 μM =>final conc. in the 5 μL assay volume is 1μM) in assay buffer and the resulting mixture was incubated for a reaction time of […] at 22° C. The concentration of EGFR was adjusted depending of the activity of the enzyme lot and was chosen appropriate to have the assay in the linear range, typical concentration were about 3 U/ml. The reaction was stopped by the addition of 5 μl of a solution of HTRF detection reagents (0.1 μM streptavidine-XL665 [Cis Biointernational]and 1 nM PT66-Tb-Cryptate, an terbium-cryptate labelled anti-phospho-tyrosine antibody from Cis Biointernational [instead of the PT66-Tb-cryptate PT66-Eu-Chelate from Perkin Elmer can also be used]) in an aqueous EDTA-solution (80 mM EDTA, 0.2% (w/v) bovine serum albumin in 50 mM HEPES pH 7.5).
The resulting mixture was incubated 1 h at 22° C. to allow the binding of the biotinylated phosphorylated peptide to the streptavidine-XL665 and the PT66-Eu-Chelate. Subsequently the amount of phosphorylated substrate was evaluated by measurement of the resonance energy transfer from the PT66-Tb-Cryptate to the streptavidine-XL665. Therefore, the fluorescence emissions at 620 nm and 665 nm after excitation at 337 nm were measured in a HTRF reader, e.g. a Pherastar (BMG Labtechnologies, Offenburg, Germany) or a Viewlux (Perkin-Elmer). The ratio of the emissions at 665 nm and at […] was taken as the measure for the amount of phosphorylated substrate.
For orientation: In TR-FRET formats the signal depends on donor and acceptor labels being close together.
For `CC(=O)N[C@@H]1CCN(c2cc3c(NC(C)c4ccc(-c5ccccc5CN(C)C)s4)nc(C)nc3cn2)C1` (single isomer, unassigned) [Example 79], the pIC50 (commonly −log10 of the IC50, conventionally taken in molar units) is less than 4.70.
Next, `CC(=O)N[C@@H]1CCN(c2cc3c(NC(C)c4ccc(-c5ccccc5CN(C)C)s4)nc(C)nc3cn2)C1` (single isomer, unassigned) [Example 80]: less than 4.70.
Under `CC(=O)N[C@H]1CCN(c2cc3c(NC(C)c4ccc(-c5ccccc5CN(C)C)s4)nc(C)nc3cn2)C1` (single isomer, unassigned) [Example 81] stands less than 4.70; under `CC(=O)N[C@H]1CCN(c2cc3c(NC(C)c4ccc(-c5ccccc5CN(C)C)s4)nc(C)nc3cn2)C1` (single isomer, unassigned) [Example 82], less than 4.70.
